For one data set, the target named is T1, hERG (Homo sapiens, UniProt Q12809).
T1 construct: purchased ThermoFisher Scientific PV5365
The data set is described as follows: hERG test (Predictor hERG Fluorescence Polarization Assay Kit). The data set is classed as binding. The method, then: Predictor™ hERG Fluorescence Polarization Assay Kit (ThermoFisher Scientific, PV5365).
The procedures in the kit instructions were followed: 4× Predictor™ hERG Tracer Red, 4× E-4031, and 4× test substance solutions (final assay concentration: 10 µM) were prepared in advance. 5 µL Predictor™ hERG FP Assay Buffer and 5 µL Predictor™ hERG Membrane were added sequentially to the Assay Blank group in a 384-well plate. 2.5 µL Predictor™ hERG FP Assay Buffer, 2.5 µL of 4× E-4031, and 2.5 µL of 4× test substance were added to the negative control group, the positive control group, and the test substance group, respectively, and then 5 µL Predictor™ hERG Membrane and 2.5 µL of 4× Predictor™ hERG Tracer Red were sequentially added. The total volume of the experimental system was 10 µL, and three duplicate wells were set for each group. After loading, the plate was gently tapped to mix well and incubated at room temperature (25 °C) in the dark for 3.5 h. After the incubation was completed, the fluorescence polarization value mP was measured on a microplate reader, and G Factor was 2.14.
The inhibition rate of the test substance was calculated using the following formula: [formula]

For a further data set, the target named is T2, CYP450 enzyme 3A4 (Homo sapiens, UniProt P08684).
T2 construct: Liver microsomes (purchased from BIOIVT, Cat. No.: X008070); tissue BIOIVT X008070; host or cells: human liver microsomes
T2 sequence (P08684 whole entry): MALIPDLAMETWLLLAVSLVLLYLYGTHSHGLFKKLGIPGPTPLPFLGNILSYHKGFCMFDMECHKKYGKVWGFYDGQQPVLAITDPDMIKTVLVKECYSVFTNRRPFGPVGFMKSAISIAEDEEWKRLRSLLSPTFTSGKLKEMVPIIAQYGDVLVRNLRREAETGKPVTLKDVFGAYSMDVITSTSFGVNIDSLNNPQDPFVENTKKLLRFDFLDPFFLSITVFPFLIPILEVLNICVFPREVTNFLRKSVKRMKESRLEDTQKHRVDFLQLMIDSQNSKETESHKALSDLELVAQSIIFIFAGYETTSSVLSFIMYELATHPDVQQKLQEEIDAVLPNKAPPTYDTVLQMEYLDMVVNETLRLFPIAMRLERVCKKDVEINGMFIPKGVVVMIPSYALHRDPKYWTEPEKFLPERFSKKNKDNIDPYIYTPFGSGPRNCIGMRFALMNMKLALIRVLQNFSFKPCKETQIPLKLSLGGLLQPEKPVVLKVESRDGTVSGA
As to the kind of experiment: CYP inhibition test in human liver microsomes. The data set is classed as in vitro ADME. Particulars: human liver microsomes 0.1 mg/mL. The protocol: Experimental materials: human liver microsomes (purchased from BIOIVT);
PBS: 0.1 M KH2PO4 and K2HPO4 buffers, pH 7.4.
MgCl2: a certain amount of MgCl2 was weighed out and prepared into a 20 mM MgCl2 solution with PBS.
NADPH (Chinese name: reduced nicotinamide adenine dinucleotide phosphate, purchased from Sigma, Cat. No.: 481973-500 mg): a certain amount of NADPH was weighed out and a 5 mM solution of NADPH was prepared with a 20 mM MgCl2 solution, and the final incubation concentration was 1 mM.
Compounds: 3 mM, 1 mM, 0.3 mM, 0.1 mM, 0.03 mM, 0.01 mM, and 0 mM solutions of the test compounds were prepared with a DMSO-methanol (v:v = 1:9) solution, and the final incubation concentrations were 30 µM, 10 µM, 3 µM, 1 µM, 0.3 µM, 0.1 µM, and 0 µM. 30 µM, 10 µM, 3 µM, 1 µM, 0.3 µM, and 0 µM solutions of the positive compound (ketoconazole) were prepared with a DMSO-methanol (v:v = 1:9) solution, and the final incubation concentrations were 0.3 µM, 0.1 µM, 0.03 µM, 0.01 µM, 0.003 µM, and 0 µM.
Substrate working solutions: 200 µM and 15 µM solutions of substrate working solutions (testosterone and midazolam) were prepared with PBS, separately, and the final incubation concentrations were 40 µM and 3 µM.
Liver microsomes (purchased from BIOIVT, Cat. No.: X008070): the liver microsomes were diluted to […] with PBS, and the final incubation concentration was 0.1 mg/mL.
The prepared test compounds or positive compounds were added to a 96-well plate, and then the prepared human liver microsome working solution and substrate working solution were added. The mixture was mixed well. The mixture was pre-incubated in a thermostat incubator at 37 °C for 5 min, and then the prepared NADPH was added to start the reaction. The mixture was incubated for 5 min or 10 min. After the incubation was completed, a pre-cooled acetonitrile solution containing an internal standard was added to terminate the reaction. After protein precipitation, the mixture was vortexed for 5 min with shaking and then centrifuged at 4000 rpm for 10 min. The supernatant was collected and added to the 96-well plate. The content (peak concentration ratio) of the metabolites of the substrate was determined by an LC-MS/MS method. The residual activity and the half maximal inhibitory concentration (IC50) of the enzyme were calculated based on the detected content.
Percentage of remaining enzyme activity: The activity of each subtype of CYP450 enzyme was expressed as the amount of metabolite produced, and the percentage of remaining enzyme activity was calculated as follows: [formula]
The concentrations of the test substances and the corresponding residual activity percentages were fitted using a nonlinear model of Excel software, and the concentration of the test substances at which 50% inhibition of metabolite production was achieved was the IC50 value.
In general terms: Microsomes from liver hold many membrane-bound enzymes, among them those of drug oxidation.

A short description of the next data set: PK experiment in rats. The format is in vivo. Particulars: rat; SD male rats, PO 10 mg/kg, vehicle 0.5% MC/0.2% Tween 80, plasma. The method, then: The samples were analyzed by LC-MS/MS. […] Table 6. Pharmacokinetic parameters for rats
The subject of data set [1] is gene-editing MTAP-/- human colon cancer cell strain HCT116. The data set is described as follows: Efficacy in MTAP-/- HCT116 subcutaneous xenograft mouse model. The format is in vivo, Balb/c nude mice. The conditions noted are these: 50 mg/kg, PO, qd, 28 days. The protocol: The blank group contained 40% PEG400 normal saline with 2% DMSO. […] The test substance was intragastrically administered at 10 mg/kg once daily, and MRTX1719 was intragastrically administered at 50 mg/kg once daily. Model control: The vehicle (2% DMSO + 40% PEG400 + 58% normal saline) was intragastrically administered at a dose of 10 mL/kg once daily. Administration was performed for 28 days in total. […] The mice were euthanized on the day when the last administration was completed. […] In the formula, VTt represents the tumor volume of the treatment group at each measurement, and VT0 represents the tumor volume measured when the treatment group is grouped; VCt represents the tumor volume of the vehicle group at each measurement (same as VTt), and VC0 represents the tumor volume measured when the vehicle group is grouped. Data were analyzed using GraphPad Prism 9.0 software and expressed as Mean ± SEM (standard error). Pairwise comparisons between each administration group and the control group were performed using one-way analysis of variance (ANOVA). Variance homogeneity was determined using the Brown-Forsythe method, and variance heterogeneity was determined using the Dunnett's T3 method. Table 7. Efficacy evaluation in HCT116 subcutaneous xenograft mouse model

The test system of data set [2] is human large cell lung cancer cell line LU99. As to the kind of experiment: Efficacy in LU99 xenograft mouse model. The format is in vivo, Balb/c nude mice. Particulars: 50 mg/kg, PO, qd, 28 days. The method, then: The human large cell lung cancer cell line LU99 was purchased from Nanjing Cobioer Biosciences Co., Ltd. (CBP61512) and cultured in RPMI-1640 medium (Gibco) containing 10% fetal bovine serum (Gibco); the test substances were prepared into suspensions at concentrations of 0.3 mg/mL, 1 mg/mL, and 5 mg/mL using a 0.5% aqueous MC solution containing 0.2% Tween 80. Reference Example 6 (MRTX1719) was prepared into a 5 mg/mL clear solution using 40% PEG400 normal saline containing 2% DMSO.
LU99 cells in the logarithmic growth phase were digested, collected, and counted, and the cell density was adjusted to 2 × 10^7 cells/mL using a 1:1 serum-free medium and matrigel (Corning). 18-20 g of Balb/c nude mice (Beijing Huafukang Biotechnology Co., Ltd.) were inoculated subcutaneously with 100 µL of cell suspension per mouse. On day 12 after inoculation, animals with a mean tumor volume of 116 mm^3 were randomly grouped, with 7 animals in each group. The test substances were intragastrically administered at 3 mg/kg, 10 mg/kg, and 50 mg/kg once daily, and MRTX1719 was intragastrically administered at 50 mg/kg once daily. A vehicle (2% DMSO + 40% PEG400 + 58% normal saline) was intragastrically administered to the blank group at a dose of 10 mL/kg once daily. Administration was performed for 28 days in total.
After the animals were inoculated with LU99 cells, the tumor volume was measured 2-3 times a week, and the tumor volume was calculated based on length × width^2 × 0.5. On the day when the last administration was completed, except for the mice with tumor regression, which were subjected to discontinuation observation, the remaining mice were euthanized.
In the formula, VTt represents the tumor volume of the treatment group at each measurement, and VT0 represents the tumor volume measured when the treatment group is grouped; VCt represents the tumor volume of the model control group at each measurement, and VC0 represents the tumor volume measured when the model control group is grouped.
Data were analyzed using GraphPad Prism 9.0 software and expressed as Mean ± SEM (standard error). Pairwise comparisons between each administration group and the model control group were performed using one-way analysis of variance (ANOVA). Variance homogeneity was determined using the Brown-Forsythe method, and variance heterogeneity was determined using the Dunnett's T3 method. Table 8. Efficacy evaluation in LU99 xenograft mouse model

Another data set can be described thus: PK experiment in mice. Particulars: mouse, plasma, po, 10 mg/kg.

Where two headings read alike, the source gives them in different places. Bounds are passed on as bounds.

T1 sequence (Q12809 whole entry): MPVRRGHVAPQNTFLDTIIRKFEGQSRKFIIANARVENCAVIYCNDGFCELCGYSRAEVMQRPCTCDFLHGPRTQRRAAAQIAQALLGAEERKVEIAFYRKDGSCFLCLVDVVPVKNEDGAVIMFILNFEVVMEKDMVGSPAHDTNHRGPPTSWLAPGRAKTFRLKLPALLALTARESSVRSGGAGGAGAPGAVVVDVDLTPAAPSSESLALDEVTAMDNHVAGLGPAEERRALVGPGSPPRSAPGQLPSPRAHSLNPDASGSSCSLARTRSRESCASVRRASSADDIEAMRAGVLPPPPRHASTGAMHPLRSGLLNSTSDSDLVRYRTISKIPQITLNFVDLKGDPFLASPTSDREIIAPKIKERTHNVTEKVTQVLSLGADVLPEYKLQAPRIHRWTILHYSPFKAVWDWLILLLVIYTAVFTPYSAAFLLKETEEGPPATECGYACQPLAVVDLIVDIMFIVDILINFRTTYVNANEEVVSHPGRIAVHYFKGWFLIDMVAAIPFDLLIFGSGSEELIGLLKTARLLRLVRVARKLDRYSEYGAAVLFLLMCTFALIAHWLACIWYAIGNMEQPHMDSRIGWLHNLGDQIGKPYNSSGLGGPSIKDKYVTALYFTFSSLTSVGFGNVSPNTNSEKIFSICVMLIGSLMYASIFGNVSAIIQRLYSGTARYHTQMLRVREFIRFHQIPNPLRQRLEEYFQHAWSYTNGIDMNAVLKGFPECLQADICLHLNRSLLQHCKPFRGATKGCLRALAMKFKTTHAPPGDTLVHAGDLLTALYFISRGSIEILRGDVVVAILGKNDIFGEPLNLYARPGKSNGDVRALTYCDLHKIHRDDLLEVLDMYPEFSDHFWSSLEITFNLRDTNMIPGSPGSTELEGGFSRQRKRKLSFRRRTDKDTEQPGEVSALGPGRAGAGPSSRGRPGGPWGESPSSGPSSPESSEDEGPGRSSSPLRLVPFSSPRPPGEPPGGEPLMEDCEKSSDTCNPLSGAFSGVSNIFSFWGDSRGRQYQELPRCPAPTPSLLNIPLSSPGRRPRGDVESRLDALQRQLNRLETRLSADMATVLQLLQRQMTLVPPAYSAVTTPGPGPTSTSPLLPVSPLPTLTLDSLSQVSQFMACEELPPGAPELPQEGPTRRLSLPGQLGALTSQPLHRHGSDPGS
Method for PK experiment in mice: Experimental materials: the experimental animals were healthy adult female BALB/c mice (provided by Sichuan Vital River Laboratory Animal Technology Co., Ltd.).
Administration mode and sample collection in mice: BALB/c female mice received oral intragastrical administration (10 mg/kg, vehicle: 0.5% methylcellulose/0.2% Tween 80), and 60 µL of whole blood from the venous plexus of the fundus of the mice at different time points was collected at 0.25 h, 0.5 h, 1 h, 2 h, 4 h, 6 h, 8 h, and 24 h after administration and centrifuged at 4000 rpm for 6 min to collect plasma.
10 µL of mouse plasma sample was added to 190 µL of acetonitrile solution containing an internal standard to precipitate protein. The mixture was vortexed for 10 min and centrifuged at 4000 rpm for 10 min. The supernatant was collected and added to a 96-well plate. The samples were analyzed by LC-MS/MS. The drug concentrations in the plasma of mice at different time points after intragastric administration of the example compounds were measured by an LC-MS/MS method, and the related pharmacokinetic parameters were calculated, such that the pharmacokinetic behavior of the compounds in the mice was studied, and the pharmacokinetic characteristics were evaluated.

Broadly, the inhibition is the relative decrease from the control value, in per cent. As usually defined, the IC50 is the concentration needed to halve the response being measured. The AUC(0-t) is the area under the concentration-time curve up to a stated or last time point. As usually defined, the Cmax is the maximum level reached in the sampled fluid or tissue. The term TGI denotes the reduction of tumour growth relative to the control group. Lower therefore signals a weaker effect on the tumour. As for `Cn1ncc(-c2ccc3c(=O)[nH]nc(CN)c3c2)c1-c1c(F)c(Cl)cc(OC2CC2)c1C#N` (atropisomer, axis not shown) [Reference Example 6, reference compound], at hERG (herg membrane fluorescence polarization, 10 µM test substance, three duplicate wells), the inhibition at 3.5 h, 10 µM is 77.4%. For the same compound, the IC50 at hERG (only 10 µM tested) was less than 10000 nM; on CYP450 enzyme 3A4 (substrate midazolam 3 µM, read-out: IC50 3A4-Midazolam), 2130 nM; at CYP450 enzyme 3A4 (substrate testosterone 40 µM, read-out: IC50 3A4-Testosterone), 1950 nM. Moreover, the AUC(0-t) in “PK experiment in rats” is 100 ± 103 ng·h/mL; in the data set “PK experiment in mice”, 1970 ± 316 ng·h/mL. The Cmax was 107 ± 149 ng/mL in “PK experiment in rats” and 428 ± 220 ng/mL in “PK experiment in mice”. Besides, the TGI in data set [1] turned out to be 72.21%; in data set [2], 90.96%. Besides, the Tumor volume is 525.74 mm^3 in data set [1] and 279.68 mm^3 in data set [2].

The values above are taken from patent publication EP4755886A1 (Chengdu Chipscreen Pharmaceutical Ltd., priority 2023, dated 2025).
